Data as given in patent US10821115B2, “Compounds that inhibit Mcl-1 protein” (priority 2017, dated 2020).
Read-outs that look alike come from different tables or passages of the source.

How the values were obtained:
[1] = biological target: recombinant human Mcl-1 (residues 171-327) / Bim interaction (Homo sapiens (Human), UniProt Q07820); assay: biochemical; type: binding; details: read-out: Mcl-1 HTRF IC50
[2] = tested on: human multiple myeloma cell line, OPM-2; assay: Cell viability assay (OPM-2 10 FBS), CellTiter-Glo; type: cell-based
Summary of the method: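 Serially diluted test compounds are incubated 16 h with cells (3000/well) in RPMI 1640 supplemented with 10% FBS. Viability is then measured by luminescence and IC50 calculated by 4-parameter logistic fit.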

[3] = 0.1 nM Mcl-1(171-327), 0.05 nM biotin-Bim (51-76)
[4] = Homo sapiens, OPM-2, 16 h, read-out: OPM-2 10% FBS IC50 IP, OPM-2 cells, 10% FBS, 16 h incubation
[5] = TR-FRET, Mcl-1(171-327) / biotin-Bim (51-76)
[6] = Homo sapiens, OPM-2, 16 h, read-out: OPM-2 10% FBS IC50 IP, OPM-2 cells, 10% FBS, 16 h, CellTiter-Glo
[7] = read-out: OPM-2 10% FBS IC50 IP, OPM-2 cells, 10% FBS, 16 h, CellTiter-Glo

recombinant human Mcl-1 (residues 171-327) / Bim interaction, sequence (Q07820 171-327): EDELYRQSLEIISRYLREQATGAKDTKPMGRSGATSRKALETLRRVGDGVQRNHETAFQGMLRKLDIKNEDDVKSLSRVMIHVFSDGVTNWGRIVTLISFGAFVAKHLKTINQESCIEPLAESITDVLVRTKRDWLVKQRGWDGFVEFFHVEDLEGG

| SMILES | IC50 [1, 3] [nM] | IC50 [2, 4] [nM] | IC50 [1, 5] [nM] | IC50 [2, 6] [nM] | other results |
| --- | --- | --- | --- | --- | --- |
| CO[C@@]1(CN2CCc3[nH]nnc3C2)/C=C/C[C@H](C)[C@@H](C)S(=O)(=O)NC(=O)c2ccc3c(c2)N(C[C@@H]2CC[C@H]21)C[C@@]1(CCCc2cc(Cl)ccc21)CO3 [Example 205, (1S,3′R,6′R,7′S,8′E,11′S,12′R)-6-chloro-7′-methoxy-11′,12′-dimethyl-7′-(1,4,6,7-tetrahydro-5H-[1,2,3]triazolo[4,5-c]pyridin-5-ylmethyl)-3,4-dihydro-2H,15′H-spiro[naphthalene-1,22′-[20]oxa[13]thia[1,14]diazatetracyclo [14.7.2.0~3,6~.0~19,24~]pentacosa[8,16,18,24]tetraen]-15′-one 13′,13′-dioxide] | 0.263 | 437 |  |  |  |
| COc1ccncc1[C@]1(O)/C=C/C[C@H](C)[C@@H](C)S(=O)(=O)NC(=O)c2ccc3c(c2)N(C[C@@H]2CC[C@H]21)C[C@@]1(CCCc2cc(Cl)ccc21)CO3 (single isomer, unassigned) [Example 100557] |  |  | 0.093 | 299 |  |
| CO[C@@]1(C)/C=C/C[C@H](C)[C@@H](C)S(=O)(=O)NC(=O)c2ccc3c(c2)N(C[C@@H]2CC[C@H]21)C[C@@]1(CCCc2cc(Cl)ccc21)CO3 [Example 100014, (1S,3′R,6′R,7′S,8′E, 11′S, 12′R)-6-chloro-7′-methoxy-7′,11′,12′-trimethyl-3,4-dihydro-2H,15′H-spiro[naphthalene-1,22′-[20]oxa[13]thia[1,14]diazatetracyclo[14.7.2.0-3,6˜.0˜19,24˜]pentacosa[8,16,18,24]tetraen]-15′-one 13′,13′-dioxide] |  |  |  | 330 | IC50 [1]: 0.228 nM |
| C[C@@H]1[C@@H](C)C/C=C/[C@@](O)(c2nc(CO)nn2C)[C@@H]2CC[C@H]2CN2C[C@@]3(CCCc4cc(Cl)ccc43)COc3ccc(cc32)C(=O)NS1(=O)=O [Example 100200, (1S,3′R,6′R,7′S,8′E,11′S,12′R)-6-chloro-7′-hydroxy-7′-(3-(hydroxymethyl)-1-methyl-1H-1,2,4-triazol-5-yl)-11′,12′-dimethyl-3,4-dihydro-2H,15′H-spiro[naphthalene-1,22′-[20]oxa[13]thia[1,14]diazatetracyclo [14.7.2.0~3,6~.0~19,24~]pentacosa[8,16,18,24]tetraen]-15′-one 13′,13′-dioxide] |  |  | 0.213 | 1070 |  |
| CC(C)OC[C@]1(O)/C=C/C[C@H](C)[C@@H](C)S(=O)(=O)NC(=O)c2ccc3c(c2)N(C[C@@H]2CC[C@H]21)C[C@@]1(CCCc2cc(Cl)ccc21)CO3 [Example 100442, (1S,3′R,6′R,7′S,8′E,11′S,12′R)-6-chloro-7′-hydroxy-11′,12′-dimethyl-7′-((2-propanyloxy)methyl)-3,4-dihydro-2H,15′H-spiro[naphthalene-1,22′-[20]oxa[13]thia[1,14]diazatetracyclo [14.7.2.0~3,6~.0~19,24~]pentacosa[8,16,18,24]tetraen]-15′-one 13′,13′-dioxide] |  |  | 0.921 | 3870 |  |
| CO[C@]1(CN2CCN(C(C)(C)C)CC2)/C=C/C[C@H](C)[C@@H](C)S(=O)(=O)NC(=O)c2ccc3c(c2)N(C[C@@H]2CC[C@H]21)C[C@@]1(CCCc2cc(Cl)ccc21)CO3 [Example 307, (1S,3′R,6′R,7′R,8′E,11′S,12′R)-7′-((4-tert-butyl-1-piperazinyl)methyl)-6-chloro-7′-methoxy-11′,12′-dimethyl-3,4-dihydro-2H,15′H-spiro[naphthalene-1,22′-[20]oxa[13]thia[1,14]diazatetracyclo [14.7.2.0~3,6~.0~19,24~]pentacosa[8,16,18,24]tetraen]-15′-one 13′,13′-dioxide] | 0.087 | 41 |  |  |  |
| CO[C@@]1(CN2CCN(C(=O)N(C)C)CC2)/C=C/C[C@H](C)[C@@H](C)S(=O)(=O)NC(=O)c2ccc3c(c2)N(C[C@@H]2CC[C@H]21)C[C@@]1(CCCc2cc(Cl)ccc21)CO3 [Example 259, 4-(((1S,3′R,6′R,7′S,8′E,11′S, 12′R)-6-chloro-7′-methoxy-11′,12′-dimethyl-13′,13′-dioxido-15′-oxo-3,4-dihydro-2H-spiro[naphthalene-1,22′-[20]oxa[13]thia[1,14]diazatetracyclo [14.7.2.0~3,6~.0~19,24~]pentacosa[8,16,18,24]tetraen]-7′-yl)methyl)-N,N-dimethyl-1-piperazinecarboxamide] | 0.23 | 254 |  |  |  |
| CO[C@@]1(CCN(C)C)/C=C/C[C@H](C)[C@@H](C)S(=O)(=O)NC(=O)c2ccc3c(c2)N(C[C@@H]2CC[C@H]21)C[C@@]1(CCCc2cc(Cl)ccc21)CO3 [Example 100393, (1S,3′R,6′R,7′S,8′E,11′S,12′R)-6-chloro-7′-(2-(dimethylamino)ethyl)-7′-methoxy-11′,12′-dimethyl-3,4-dihydro-2H,15′H-spiro[naphthalene-1,22′-[20]oxa[13]thia[1,14]diazatetracyclo [14.7.2.0~3,6~.0~19,24~]pentacosa[8,16,18,24]tetraen]-15′-one 13′,13′-dioxide] |  |  | 0.164 | 211 |  |
| CCO[C@@]1(CN2CCC(N(C)C)CC2)/C=C/C[C@H](C)[C@@H](C)S(=O)(=O)NC(=O)c2ccc3c(c2)N(C[C@@H]2CC[C@H]21)C[C@@]1(CCCc2cc(Cl)ccc21)CO3 [Example 110, (1S,3′R,6′R,7′S,8′E,11′S,12′R)-6-chloro-7′-((4-(dimethylamino)-1-piperidinyl)methyl)-7′-ethoxy-11′,12′-dimethyl-3,4-dihydro-2H,15′H-spiro[naphthalene-1,22′-[20]oxa[13]thia[1,14]diazatetracyclo [14.7.2.0~3,6~.0~19,24~]pentacosa[8,16,18,24]tetraen]-15′-one 13′,13′-dioxide] | 0.505 | 1720 |  |  |  |
| CO[C@H](C)[C@]1(OC)/C=C/C[C@H](C)[C@@H](C)S(=O)(=O)NC(=O)c2ccc3c(c2)N(C[C@@H]2CC[C@H]21)C[C@@]1(CCCc2cc(Cl)ccc21)CO3 [Example 100473, (1S,3′R,6′R,7′S,8′E,11′S,12′R)-6-chloro-7′-methoxy-7′-((1R)-1-methoxyethyl)-11′,12′-dimethyl-3,4-dihydro-2H,15′H-spiro[naphthalene-1,22′-[20]oxa[13]thia[1,14]diazatetracyclo [14.7.2.0~3,6~.0~19,24~]pentacosa[8,16,18,24]tetraen]-15′-one 13′,13′-dioxide] |  |  | 0.974 |  | IC50 [2, 7]: 178 nM |
| C[C@@H]1[C@@H](C)C/C=C/[C@@](O)(CCCO)[C@@H]2CC[C@H]2CN2C[C@@]3(CCCc4cc(Cl)ccc43)COc3ccc(cc32)C(=O)NS1(=O)=O [Example 100148, (1S,3′R,6′R,7′S,8′E,11′S,12′R)-6-chloro-7′-hydroxy-7′-(3-hydroxypropyl)-11′,12′-dimethyl-3,4-dihydro-2H,15′H-spiro[naphthalene-1,22′-[20]oxa[13]thia[1,14]diazatetracyclo [14.7.2.0~3,6~.0~19,24~]pentacosa[8,16,18,24]tetraen]-15′-one 13′,13′-dioxide] |  |  | 0.113 |  | IC50 [2, 7]: 239 nM |
| COc1ccc([C@@]2(O)/C=C/C[C@H](C)[C@@H](C)S(=O)(=O)NC(=O)c3ccc4c(c3)N(C[C@@H]3CC[C@H]32)C[C@@]2(CCCc3cc(Cl)ccc32)CO4)cn1 (single isomer, unassigned) [Example 100362] |  |  | 0.888 | 2100 |  |
